The first data set has as its target T1, Broad substrate specificity ATP-binding cassette transporter ABCG2 (Homo sapiens, UniProt Q9UNQ0).
T1 sequence (Q9UNQ0 whole entry): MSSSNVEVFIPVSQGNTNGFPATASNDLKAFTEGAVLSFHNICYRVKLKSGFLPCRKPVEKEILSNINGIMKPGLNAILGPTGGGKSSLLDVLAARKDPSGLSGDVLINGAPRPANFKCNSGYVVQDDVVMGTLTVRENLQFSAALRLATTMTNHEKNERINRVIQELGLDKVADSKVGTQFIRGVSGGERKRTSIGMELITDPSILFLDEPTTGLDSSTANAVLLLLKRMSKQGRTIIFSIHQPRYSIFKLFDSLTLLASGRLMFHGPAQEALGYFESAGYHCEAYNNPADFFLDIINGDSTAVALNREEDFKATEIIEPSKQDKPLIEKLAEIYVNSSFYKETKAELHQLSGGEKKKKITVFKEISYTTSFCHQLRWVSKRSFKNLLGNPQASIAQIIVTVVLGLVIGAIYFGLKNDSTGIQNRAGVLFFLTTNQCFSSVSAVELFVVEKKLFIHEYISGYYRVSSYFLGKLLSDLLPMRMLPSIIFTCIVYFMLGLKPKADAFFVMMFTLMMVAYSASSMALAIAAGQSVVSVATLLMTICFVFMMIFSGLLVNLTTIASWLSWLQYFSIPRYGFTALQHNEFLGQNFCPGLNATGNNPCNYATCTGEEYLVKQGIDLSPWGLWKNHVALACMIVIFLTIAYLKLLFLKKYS
Briefly: Inhibition of ABCG2 (unknown origin).
Conditions: not given
Xanthine dehydrogenase/oxidase, sequence (P47989 whole entry): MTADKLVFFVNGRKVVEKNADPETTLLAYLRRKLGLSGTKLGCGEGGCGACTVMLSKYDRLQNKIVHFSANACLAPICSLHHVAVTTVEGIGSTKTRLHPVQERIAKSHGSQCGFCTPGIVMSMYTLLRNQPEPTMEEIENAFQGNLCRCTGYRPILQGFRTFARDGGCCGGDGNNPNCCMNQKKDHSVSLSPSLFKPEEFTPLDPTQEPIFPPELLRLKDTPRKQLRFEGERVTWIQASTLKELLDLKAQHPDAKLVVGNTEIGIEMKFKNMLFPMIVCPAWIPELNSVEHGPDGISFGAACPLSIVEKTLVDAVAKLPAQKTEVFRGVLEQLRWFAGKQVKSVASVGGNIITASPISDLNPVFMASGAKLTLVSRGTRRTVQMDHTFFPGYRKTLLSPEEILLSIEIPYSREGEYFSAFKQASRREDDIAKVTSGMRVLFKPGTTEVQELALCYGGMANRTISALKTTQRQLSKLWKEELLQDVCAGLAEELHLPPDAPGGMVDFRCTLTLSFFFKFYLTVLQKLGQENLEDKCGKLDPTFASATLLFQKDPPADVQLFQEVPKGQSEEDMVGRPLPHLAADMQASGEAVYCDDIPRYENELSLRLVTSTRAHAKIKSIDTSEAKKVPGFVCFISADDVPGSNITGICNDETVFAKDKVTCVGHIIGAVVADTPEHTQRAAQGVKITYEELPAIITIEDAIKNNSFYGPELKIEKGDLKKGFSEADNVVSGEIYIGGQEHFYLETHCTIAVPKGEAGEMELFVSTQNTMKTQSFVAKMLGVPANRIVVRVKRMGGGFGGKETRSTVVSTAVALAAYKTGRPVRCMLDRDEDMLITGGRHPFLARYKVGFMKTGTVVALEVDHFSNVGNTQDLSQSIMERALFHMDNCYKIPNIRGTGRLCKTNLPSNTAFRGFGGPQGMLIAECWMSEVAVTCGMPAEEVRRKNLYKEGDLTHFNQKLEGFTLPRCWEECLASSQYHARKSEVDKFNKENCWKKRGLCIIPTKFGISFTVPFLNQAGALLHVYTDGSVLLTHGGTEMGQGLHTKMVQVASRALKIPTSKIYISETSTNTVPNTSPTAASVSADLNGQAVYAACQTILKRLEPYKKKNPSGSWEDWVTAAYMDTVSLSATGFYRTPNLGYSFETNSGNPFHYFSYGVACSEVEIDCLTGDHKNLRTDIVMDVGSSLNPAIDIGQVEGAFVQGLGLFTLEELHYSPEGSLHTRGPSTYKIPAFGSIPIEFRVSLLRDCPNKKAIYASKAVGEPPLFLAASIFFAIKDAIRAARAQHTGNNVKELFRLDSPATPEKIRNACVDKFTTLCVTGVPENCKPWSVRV
`O=C(c1cc(Cl)c(O)c(Cl)c1)N1CS(=O)(=O)c2ccccc21` [DOTINURAD] had an IC50 of 37.2 nM.

Tested on in another data set: not listed separately
As to the kind of experiment: Oral bioavailability in rat relative to urinary excretion. It counts as ADME, organism-based. As to conditions: urine.
The compound `O=C(O)[C@H]1O[C@@H](Oc2c(Cl)cc(C(=O)N3CS(=O)(=O)c4ccccc43)cc2Cl)[C@H](O)[C@@H](O)[C@@H]1O` registered a bioavailability of 44.3%.
Still for that read-out and setting: to `O=C(c1cc(Cl)c(OS(=O)(=O)O)c(Cl)c1)N1CS(=O)(=O)c2ccccc21` belongs 20%.

Another data set concerns the target Xanthine dehydrogenase/oxidase (Homo sapiens, UniProt P47989). Briefly: Inhibition of XO (unknown origin).
Conditions: not given
`CC(=O)N1N=C(c2ccco2)CC1c1ccncc1` (centres undefined) gave an IC50 of 5.3 µM.
`N#Cc1ccc(COc2cc(O)cc3oc4cc(O)c(O)cc4c(=O)c23)cc1` registered an IC50 of 21.7 µM.
Turning to `Cc1nc(-c2ccc(OCC(C)(C)C)c(C#N)c2)n(O)c1C(=O)O`, inhibition was half-maximal at 6 µM (IC50).
Regarding `O=c1cc(-c2ccc(F)cc2)oc2c1ccc1ccccc12`, the IC50 came out at 0.62 µM.
`N#CC1=C(N)Oc2c(c(=O)oc3ccccc23)C1c1cccs1` (centres undefined) returned an IC50 of 0.59 µM.
The same measure, in the same setting: to `Cc1nc(-c2ccc(OCC(C)C)c(C#N)c2)sc1C(=O)O` [FEBUXOSTAT] belongs 25 µM.

The term IC50 denotes the concentration needed to halve the response being measured. A higher IC50 goes with a need for much substance. A word on the bioavailability: it is the share of a dose that reaches the circulation, judged against a reference dose that is usually intravenous. Higher therefore signals good availability.
